Where only a bound is given, the exact number is not on record here.

The subject of this assay is Ba/F3-CDM cells (Ba/F3 transfected with CD8-MerTK). Nature of the assay: In cell MER kinase assay, Ba/F3-CDM cell proliferation without IL-3 (Celltiter-Glo, GI50). Format: cell-based, murine. The settings on record: 48 hours, read-out: Cell growth inhibition (GI50). The protocol:
In Cell MER Kinase Assay Using BaF3 Cellular System
To establish an in cell kinase assay for MerTK kinase, the IL-3 dependent Ba/F3 cells of murine lymphoid origin was transfected with CD8-MerTK. […] For a routine cellular assay, Ba/F3-CDM cells were seeded at 2,000 cells per well in 384-well cell culture plate containing DMEM/10% FBS culture media and incubated for 24 hours before addition of compounds pre-diluted in culture media. Following compound treatment, cells were further incubated for 48 hours and the proliferation was measured. To discriminate a Ba/F3 growth inhibition by a specific inhibition of MerTK kinase following compound treatment vs growth inhibition due to a non-specific unintended cytotoxicity of compounds, we routinely carried out control sets of Ba/F3 cells in parallel that grown in IL3-supplemented growth media. In the presence of IL-3, the proliferation of Ba/F3 is no longer dependent on the MerTK activity. Cell growth and proliferation was measured with Celltiter-Glo™ system (Promega, USA) according to the manufacturer's instruction. The half-maximal growth inhibitory concentration (GI50) value was calculated with Prism6.0 software (GraphPad, USA).
Take `Cc1cccc(C)c1CO[C@H]1CCC[C@@H]1NC(=O)c1cc(-c2cnn(C)c2)cnc1N` [Example 15, 2-amino-N-((1S,2S)-2-((2,6-dimethylbenzyl)oxy)cyclopentyl)-5-(1-methyl-1H-pyrazol-4-yl)nicotinamide]: the GI50 was greater than 1000 nM.
Turning to `CCc1cc(CO[C@H]2CCC[C@@H]2NC(=O)c2cc(-c3cnn(C)c3)cnc2N)ccc1C` [Example 21], the GI50 was greater than 1000 nM.
As to `CN(C)c1ccc(-c2ccc(CO[C@H]3CCC[C@@H]3NC(=O)c3cc(-c4cnn(C)c4)cnc3N)cc2)cc1` [Example 137, 2-amino-N-((1S,2S)-2-((4′-(dimethylamino)-[1,1′-biphenyl]-4-yl)methoxy)cyclopentyl)-5-(1-methyl-1H-pyrazol-4-yl)nicotinamide], the 50% growth inhibitory concentration (GI50) is less than 100 nM.
As for `Cn1cc(-c2cnc(N)c(C(=O)N[C@H]3CCC[C@@H]3OCc3ccc(-c4ccc(CCN)cc4)cc3)c2)cn1` [Example 145, 2-amino-N-((1S,2S)-2-((4′-(2-aminoethyl)-[1,1′-biphenyl]-4-yl)methoxy)cyclopentyl)-5-(1-methyl-1H-pyrazol-4-yl)nicotinamide], the GI50 was greater than 1000 nM.
The same measure for `CN1CCN(c2ccc(-c3ccc(CO[C@H]4CCC[C@@H]4NC(=O)c4cc(-c5cnn(C)c5)cnc4N)cc3)cc2)CC1` [Example 146, 2-amino-5-(1-methyl-1H-pyrazol-4-yl)-N-((1S,2S)-2-((4′-(4-methylpiperazin-1-yl)-[1,1′-biphenyl]-4-yl)methoxy)cyclopentyl)nicotinamide]: less than 100 nM; for `CN1CCN(c2ccc(-c3ccc(CO[C@H]4CCC[C@@H]4NC(=O)c4cc(-c5cnn(C)c5)cnc4N)cc3)cn2)CC1` [Example 148, 2-amino-5-(1-methyl-1H-pyrazol-4-yl)-N-((1S,2S)-2-((4-(6-(4-methylpiperazin-1-yl)pyridin-3-yl)benzyl)oxy)cyclopentyl)nicotinamide]: greater than 1000 nM.
On to `CN1CCN(Cc2ccc(-c3ccc(CO[C@H]4CCC[C@@H]4NC(=O)c4cc(-c5cnn(C)c5)cnc4N)c(F)c3)cc2)CC1` [Example 156, 2-amino-N-((1S,2S)-2-((3-fluoro-4′-((4-methylpiperazin-1-yl)-methyl)-[1,1′-biphenyl]-4-yl)methoxy)cyclopentyl)-5-(1-methyl-1H-pyrazol-4-yl)-nicotinamide], for which the GI50 was less than 100 nM.
The same measure for `CN1CCN(CCc2ccc(-c3ccc(CO[C@H]4CCC[C@@H]4NC(=O)c4cc(-c5cnn(C)c5)cnc4N)cc3)cc2)CC1` [Example 161, 2-amino-5-(1-methyl-1H-pyrazol-4-yl)-N-((1S,2S)-2-((4′-(2-(4-methylpiperazin-1-yl)ethyl)-[1,1′-biphenyl]-4-yl)methoxy)cyclopentyl)nicotinamide]: less than 100 nM; for `Cn1cc(-c2cnc(N)c(C(=O)N[C@H]3CCC[C@@H]3OCc3ccc(-c4ccc(CN5CCC(O)CC5)cc4)cc3)c2)cn1` [Example 180, 2-amino-N-((1S,2S)-2-((4′-((4-hydroxypiperidin-1-yl)methyl)-[1,1′-biphenyl]-4-yl)methoxy)cyclopentyl)-5-(1-methyl-1H-pyrazol-4-yl)nicotinamide]: greater than 1000 nM.
In the case of `Cn1cc(-c2cnc(N)c(C(=O)N[C@H]3CCC[C@@H]3OCc3ccc(-c4ccc(CN5CCN(CCO)CC5)cc4)cc3)c2)cn1` [Example 181, 2-amino-N-((1S,2S)-2-((4′-((4-(2-hydroxyethyl)piperazin-1-yl)-methyl)-[1,1′-biphenyl]-4-yl)methoxy)cyclopentyl)-5-(1-methyl-1H-pyrazol-4-yl)-nicotinamide] it was less than 100 nM; in that of `Cn1cc(-c2cnc(N)c(C(=O)N[C@H]3CCC[C@@H]3OCc3ccc(-c4ccc(CN5CCN(CC(C)(C)O)CC5)cc4)cc3)c2)cn1` [Example 182, 2-amino-N-((1S,2S)-2-((4′-((4-(2-hydroxy-2-methylpropyl)-piperazin-1-yl)methyl)-[1,1′-biphenyl]-4-yl)methoxy)cyclopentyl)-5-(1-methyl-1H-pyrazol-4-yl)nicotinamide], less than 100 nM; in that of `CCN1CCN(Cc2ccc(-c3ccc(CO[C@H]4CCC[C@@H]4NC(=O)c4cc(-c5cnn(C)c5)cnc4N)cc3)cc2)CC1` [Example 183, 2-amino-N-((1S,2S)-2-((4′-((4-ethylpiperazin-1-yl)methyl)-[1,1′-biphenyl]-4-yl)methoxy)cyclopentyl)-5-(1-methyl-1H-pyrazol-4-yl)nicotinamide], less than 100 nM.
Regarding `Cn1cc(-c2cnc(N)c(C(=O)N[C@H]3CCC[C@@H]3OCc3ccc(-c4ccc(CN5CCN(C6CC6)CC5)cc4)cc3)c2)cn1` [Example 184, 2-amino-N-((1S,2S)-2-((4′-((4-cyclopropylpiperazin-1-yl)methyl)-[1,1′-biphenyl]-4-yl)methoxy)cyclopentyl)-5-(1-methyl-1H-pyrazol-4-yl)nicotinamide], the GI50 is less than 100 nM.
On to `C[C@@H]1CN(Cc2ccc(-c3ccc(CO[C@H]4CCC[C@@H]4NC(=O)c4cc(-c5cnn(C)c5)cnc4N)cc3)cc2)CCN1C` [Example 186, 2-amino-N-((1S,2S)-2-((4′-(((R)-3,4-dimethylpiperazin-1-yl)-methyl)-[1,1′-biphenyl]-4-yl)methoxy)cyclopentyl)-5-(1-methyl-1H-pyrazol-4-yl)-nicotinamide], for which the 50% growth inhibitory concentration (GI50) is less than 100 nM.
The same measure for `C[C@@H]1CN(C)CCN1Cc1ccc(-c2ccc(CO[C@H]3CCC[C@@H]3NC(=O)c3cc(-c4cnn(C)c4)cnc3N)cc2)cc1` [Example 187, 2-amino-N-((1S,2S)-2-((4′-(((R)-2,4-dimethylpiperazin-1-yl)-methyl)-[1,1′-biphenyl]-4-yl)methoxy)cyclopentyl)-5-(1-methyl-1H-pyrazol-4-yl)-nicotinamide]: less than 100 nM; for `CCC1CN(Cc2ccc(-c3ccc(CO[C@H]4CCC[C@@H]4NC(=O)c4cc(-c5cnn(C)c5)cnc4N)cc3)cc2)CCN1C` (stereo partly drawn) [Example 188, 2-amino-N-((1S,2S)-2-((4′-((3-ethyl-4-methylpiperazin-1-yl)-methyl)-[1,1′-biphenyl]-4-yl)methoxy)cyclopentyl)-5-(1-methyl-1H-pyrazol-4-yl)-nicotinamide]: less than 100 nM; for `C[C@@H]1CN(Cc2ccc(-c3ccc(CO[C@H]4CCC[C@@H]4NC(=O)c4cc(-c5cnn(C)c5)cnc4N)cc3)cc2)C[C@H](C)N1` [Example 189, 2-amino-N-((1S,2S)-2-((4′-((cis-3,5-dimethylpiperazin-1-vi)-methyl)-[1,1′-biphenyl]-4-yl)methoxy)cyclopentyl)-5-(1-methyl-1H-pyrazol-4-yl)-nicotinamide]: 100 to 500 nM.
The same measure for `CC1CN[C@@H](C)CN1Cc1ccc(-c2ccc(CO[C@H]3CCC[C@@H]3NC(=O)c3cc(-c4cnn(C)c4)cnc3N)cc2)cc1` (stereo partly drawn) [Example 191, 2-amino-N-((1S,2S)-2-((4′-((trans-2,5-dimethylpiperazin-1-yl)methyl)-[1,1′-biphenyl]-4-yl)methoxy)cyclopentyl)-5-(1-methyl-1H-pyrazol-4-yl)nicotinamide]: 100 to 500 nM.
`CN(C)C1CCN(Cc2ccc(-c3ccc(CO[C@H]4CCC[C@@H]4NC(=O)c4cc(-c5cnn(C)c5)cnc4N)cc3)cc2)C1` (stereo partly drawn) [Example 193, 2-amino-N-((1S,2S)-2-((4′-((3-(dimethylamino)pyrrolidin-1-yl)methyl)-[1,1′-biphenyl]-4-yl)methoxy)cyclopentyl)-5-(1-methyl-1H-pyrazol-4-yl)nicotinamide]: the GI50 is less than 100 nM.
In the case of `CN1CCN(Cc2ccc(-c3ccc(CO[C@H]4CCC[C@@H]4NC(=O)c4nc(-c5cnn(C)c5)cnc4N)cc3)cc2)CC1` [Example 194, 3-amino-6-(1-methyl-1H-pyrazol-4-yl)-N-((1S,2S)-2-((4′-((4-methylpiperazin-1-yl)methyl)-[1,1′-biphenyl]-4-yl)methoxy)cyclopentyl)pyrazine-2-carboxamide] it was less than 100 nM; in that of `CN1CCN(Cc2ccc(-c3ccc(CO[C@H]4CCC[C@@H]4NC(=O)c4cc(-c5cnn(C)c5)cnc4N)cc3)cc2F)CC1` [Example 195, 2-amino-N-((1S,2S)-2-((3′-fluoro-4′-((4-methylpiperazin-1-yl)-methyl)-[1,1′-biphenyl]-4-yl)methoxy)cyclopentyl)-5-(1-methyl-1H-pyrazol-4-yl)-nicotinamide], less than 100 nM; in that of `CN1CCN(Cc2ccc(-c3ccc(CO[C@H]4CCC[C@@H]4NC(=O)c4cc(-c5cnn(C)c5)cnc4N)cc3)cc2C(F)(F)F)CC1` [Example 197, 2-amino-5-(1-methyl-1H-pyrazol-4-yl)-N-((1S,2S)-2-((4′-((4-methylpiperazin-1-yl)methyl)-3′-(trifluoromethyl)-[1,1′-biphenyl]-4-yl)methoxy)-cyclopentyl)nicotinamide], less than 100 nM.
With `Cc1cc(-c2ccc(CO[C@H]3CCC[C@@H]3NC(=O)c3cc(-c4cnn(C)c4)cnc3N)cc2)ccc1CN1CCN(C)CC1` [Example 198, 2-amino-5-(1-methyl-1H-pyrazol-4-yl)-N-((1S,2S)-2-((3′-methyl-4′-((4-methylpiperazin-1-yl)methyl)-[1,1′-biphenyl]-4-yl)methoxy)cyclopentyl)-nicotinamide], the GI50 is less than 100 nM.
For the compound `CN1CCN(Cc2ccc(-c3ccc(CO[C@H]4CCC[C@@H]4NC(=O)c4cc(-c5cnn(C)c5)cnc4N)cc3)cc2O)CC1` [Example 199, 2-amino-N-((1S,2S)-2-((3′-hydroxy-4′-((4-methylpiperazin-1-yl)methyl)-[1,1′-biphenyl]-4-yl)methoxy)cyclopentyl)-5-(1-methyl-1H-pyrazol-4-yl)nicotinamide], the GI50 is less than 100 nM.
